Results published in patent publication US20250353873A1, “COMPOUNDS AND METHODS FOR MODULATING APOE EXPRESSION” (Ionis Pharmaceuticals, Inc., priority 2024, published 2025).
Strand notation (5' to 3'): a small letter for the sugar, then the base; units joined by * are phosphorothioate-linked, units joined directly phosphodiester-linked; [ ] holds rarer units or linkages, { } end groups; capitals alone tell only the bases. [PN] = cyclic guanidine phosphoramidate internucleoside linkage; [ms] = mesyl phosphoramidate linkage; e = 2'-O-(2-methoxyethyl) (MOE); k = constrained ethyl (cEt); [5mC] = 5-methylcytosine; d = 2'-deoxy (DNA)

Legend:
human APOE RNA [1] = assay: Activity in APOE C57BL/6NTac-Apoeem7250 knock-in mice, single ICV bolus, 4 weeks (Example 10); assay type: in vivo; conditions: single ICV bolus 300 μg, 4 weeks post treatment, normalized to mouse Ppia
Outline: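 Knock-in mice (2–4 per group) received one 300 μg ICV bolus of oligonucleotide or PBS. After four weeks, human APOE RNA in cortex and spinal cord measured by RT-qPCR (primer probe set RTS3073), normalized to mouse Ppia, expressed as % of PBS controls.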

human APOE RNA [2] = assay: Duration of action study in APOE C57BL/6NTac-Apoeem7250 knock-in mice (Example 16); assay type: in vivo; conditions: 300 μg ICV
Experimental: Modified oligonucleotides described above were tested in the APOE C57BL/6NTac-Apoeem7250 knock-in mouse model described above.
APOE C57BL/6NTac-Apoeem7250 knock-in mice were divided into groups of 2-4 mice each. Each mouse received a single intracerebroventricular (ICV) bolus of 300 μg of modified oligonucleotide. A group of 2-4 mice received a single ICV bolus with PBS as a negative control.
Mice were sacrificed at various timepoints as indicated in the table below and RNA was extracted from cortical brain tissue and spinal cord for quantitative real-time RT-PCR analysis of RNA expression of APOE using primer probe set RTS3073 (described herein above). APOE RNA levels were normalized to mouse Ppia. Mouse Ppia was amplified using primer probe set m_cyclo24 (described herein above). Results are presented as percent human APOE RNA relative to the amount of human APOE RNA in PBS treated animals, (% control). Each experiment is identified in separate tables below.

human APOE RNA [3] = assay: Dose-dependent inhibition of human APOE RNA in HepG2 cells, electroporation, 50,000 cells per well, RT-PCR normalized to GAPDH (Example 4, Tables 8-10); assay type: cell-based; conditions: HepG2, electroporation, 24-hour treatment
Outline: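 HepG2 cells, 50,000 per well, electroporated with modified oligonucleotide at various concentrations. APOE RNA quantified by RT-PCR with human primer probe set RTS3073, normalized to GAPDH. Values are percent APOE RNA relative to untreated control cells.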

Substance | APOE RNA (% control) Cortex (human APOE RNA [1]) [% control] | APOE RNA (% control) Spinal Cord (human APOE RNA [1]) [% control] | APOE RNA (% control) Cortex (human APOE RNA [2]; 112 days post-dose) [% control] | APOE RNA (% control) Cortex (human APOE RNA [2]; 140 days post-dose) [% control] | APOE RNA (% control) Spinal Cord (human APOE RNA [2]; 112 days post-dose) [% control] | APOE RNA (% control) Spinal Cord (human APOE RNA [2]; 140 days post-dose) [% control] | APOE RNA (% UTC) (human APOE RNA [3]; 5 nM) | APOE RNA (% UTC) (human APOE RNA [3]; 13 nM) | APOE RNA (% UTC) (human APOE RNA [3]; 33 nM) | APOE RNA (% UTC) (human APOE RNA [3]; 82 nM) | APOE RNA (% UTC) (human APOE RNA [3]; 205 nM) | APOE RNA (% UTC) (human APOE RNA [3]; 512 nM) | APOE RNA (% UTC) (human APOE RNA [3]; 1,280 nM) | APOE RNA (% UTC) (human APOE RNA [3]; 3,200 nM) | APOE RNA (% UTC) (human APOE RNA [3]; 8,000 nM) | APOE RNA (% UTC) (human APOE RNA [3]; 20,000 nM) | IC50 (human APOE RNA [3]) [nM] | APOE RNA (% control) Cortex (human APOE RNA [2]; 14 days post-dose) [% control] | APOE RNA (% control) Spinal Cord (human APOE RNA [2]; 14 days post-dose) [% control]
1746789 (k[5mC]*dT[ms]kT*dG[ms]kG*dT[ms]dG[ms]dA[ms]dA[ms]dT*d[5mC]*dT*dT*dT*dA[ms]dT*kT*kA*dA[ms]kA; antisense) [Compound 1746789] | 60 | 41 | 63 | 75 | 83 | 80 | 98 | 106 | 84 | 102 | 76 | 64 | 37 | 19 | 10 | 4 | 830 |  | 
1721305: 6-10-4 MOE gapmer TTGGTGAATCTTTATTAAAC, linkages s[pn][pn][pn]oossssssssss[pn]ss (eT*eT[PN]eG[PN]eG[PN]eTeGdA*dA*dT*d[5mC]*dT*dT*dT*dA*dT*dT*eA[PN]eA*eA*e[5mC]) [compound 1721305] |  |  | 81 |  | 40 |  |  |  |  |  |  |  |  |  |  |  |  | 52 | 37
1721304: 6-10-4 MOE gapmer TTGGTGAATCTTTATTAAAC, linkages s[pn][pn][pn]oosssssszzssoss (eT*eT[PN]eG[PN]eG[PN]eTeGdA*dA*dT*d[5mC]*dT*dT*dT[ms]dA[ms]dT*dT*eAeA*eA*e[5mC]) [compound 1721304] |  |  | 67 |  | 42 |  |  |  |  |  |  |  |  |  |  |  |  | 46 | 45
1746810 (k[5mC]*dT[ms]kT*dG[ms]dG[ms]kT*dG[ms]dA[ms]dA[ms]dT*d[5mC]*dT*dT*dT*dA[ms]dT*dT[ms]kA*kA*kA; antisense) [Compound 1746810] | 56 | 80 | 63 | 82 | 80 | 106 | 109 | 106 | 95 | 77 | 68 | 46 | 36 | 13 | 8 | 5 | 490 |  | 
1721303: 6-10-4 MOE gapmer TTGGTGAATCTTTATTAAAC, linkages s[pn][pn][pn]oossssssssssoss (eT*eT[PN]eG[PN]eG[PN]eTeGdA*dA*dT*d[5mC]*dT*dT*dT*dA*dT*dT*eAeA*eA*e[5mC]) [compound 1721303] |  |  | 75 |  | 40 |  |  |  |  |  |  |  |  |  |  |  |  | 36 | 32
1753989 (k[5mC]*dT[ms]kT*dG[ms]kG*dT*dG[ms]dA[ms]dA[ms]dT*d[5mC]*dT*dT*dT*dA[ms]kT*dT[ms]kA*dA[ms]kA; antisense) [Compound 1753989] | 54 | 49 | 58 | 72 | 117 | 79 | 113 | 108 | 102 | 79 | 94 | 76 | 49 | 33 | 25 | 16 | 1670 |  | 
